{"source": "patent US8822541B2", "about": "“Use of targeted nitroxide agents in mitigating or treating radiation injury” (University of Pittsburgh—Of the Commonwealth System of …, priority 2008, dated 2014)", "key": {"mouse embryonic cells [1]": {"test_system": "mouse embryonic cells", "assay": "Intracellular superoxide generation (DHE flow cytometry) in ActD-treated MECs", "type": "cell-based", "details": "10 μM pretreatment, ActD 100 ng/mL", "experimental": "Determination of intracellular superoxide radicals Oxidation-dependent fluorogenic dye, dihydroethidium (“DHE”, Molecular Probes) was used to evaluate intracellular production of superoxide radicals. DHE is cell permeable and, in the presence of superoxide, is oxidized to fluorescent ethidium which intercalates into DNA. The fluorescence of ethidium was measured using a FACscan (Becton-Dickinson, Rutherford, N.J.) flow cytometer, equipped with a 488-nm argon ion laser and supplied with the Cell Quest software. Mean fluorescence intensity from 10,000 cells were acquired using a 585-nm bandpass filter (FL-2 channel)."}, "mouse embryonic cells [2]": {"test_system": "mouse embryonic cells", "assay": "ActD-induced apoptosis in MECs (PS externalization, caspase-3, DNA fragmentation)", "type": "cell-based", "parameters": "protection against ActD-induced apoptosis: dose or concentration left out as unconfirmed", "details": "for DNA fragmentation / caspase-3 activation / number of annexin V-positive cells (PS externalization): 10 μM, ActD 100 ng/mL; for effect at concentrations in excess of 10 μM: PS externalization", "excerpt": "Cells that annexin V-positive and PI-negative were considered apoptotic."}, "mouse embryonic cells [3]": {"test_system": "mouse embryonic cells", "assay": "EPR-based analysis of integration and reduction of nitroxide Gramicidin S-peptidyl conjugates in MECs", "type": "cell-based", "details": "10 μM, MECs and mitochondria isolated from them", "experimental": "Electron paramagnetic resonance (“EPR”) spectroscopy was used to monitor the cellular delivery of compounds 5a and 5b shown in FIG. 3 in mouse embryonic cells (“MEC”).\nThe following conditions were used during the EPR-based analysis of the integration and reduction of nitroxide Gramicidin S-peptidyl conjugates in MECs. The MECs at a concentration of 10 million MECs per mL were incubated with 10 μM of 4-AT and compound 5a, respectively. Recovered nitroxide radicals in whole cells, mitochondria, and cytosol fractions were resuspended in phosphate buffer saline (“PBS”) in the presence and absence, respectively, of 2 μM K3Fe(CN)6."}, "[4]": {"test_system": "mitochondria of 32D c13 hemopoietic cells", "assay": "Mass spectrometry of conjugates in isolated mitochondria", "type": "cell-based, mouse", "details": "100 μM, 2 h; for permeation of the mitochondrial membrane (mass spectrometry): 37° C.; for Fmole/10 μM mitochondrial protein: mouse", "experimental": "An unconjugated and conjugated NOS antagonist, (AMT, 100 μM) and an unconjugated and conjugated nitroxide derivative (4-amino-TEMPO, 100 μM) were incubated for two hours at 37° C. with 32D c13 hemopoietic cells.\nFollowing incubation, the cells were lysed and the mitochondria isolated for a mass spectrometry analysis where compounds isolated from mitochondria were identified as Na+ adducts. […] Thus, the targeting peptides successfully direct a NOS antagonist and a nitroxide to the mitochondria.\nQuantitative mass spectrometry studies were used to compare the effectiveness of several AMT peptide conjugates in permeating the mitochondrial membrane, specifically XJB-5-234, XJB-5-133, XJB-5-241, and XJB-5-127. The Fmole/10 μM mitochondrial protein ratio provides a relative quantification of conjugate concentration at the target site."}, "[5]": {"test_system": "irradiated uroepithelial cells", "assay": "NO and peroxynitrite production in irradiated uroepithelial cells (microsensor)", "type": "cell-based", "details": "AMT 10 μM, 4-amino-TEMPO 100 μM; 24 h after irradiation", "experimental": "Further physiological studies were conducted to determine the effects of peptide-targeted AMT and 4-amino-TEMPO on NO and peroxynitrite production in irradiated uroepithelial cells. The cells were cultured in an 8-well slide chamber for 3 days and then microsensor measurements were taken 24 hours after irradiation.\nIn cells treated with high-dose conjugated 4-amin-TEMPO (100 μM), peroxynitrite production was decreased by approximately 4-fold."}, "[6]": {"details": "comparison drugs; cited from earlier work"}, "[7]": {"test_system": "32D cl 3 murine hematopoietic cells", "assay": "Gamma-irradiation dose survival curves of 32D cl 3 cells (XJB-5-125, Tempol)", "type": "cell-based, mouse", "excerpt": "FIG. 16 illustrates the effect of GS conjugated nitroxide, XJB-5-125, on gamma-irradiation dose survival curves of 32D cl 3 murine hematopoietic cells."}}, "note": "Where a SMILES comes first, the peptide text is derived from it. [ ]: non-standard residue; d: D form. The star is where a group is joined. NH(TEMPO-4-yl) = CC1(C)CC(N*)CC(C)(C)N1[O]; Orn = NCCC[C@H](N)C(=O)O; Cbz = O=C(OCc1ccccc1)*; Boc = CC(C)(C)OC(=O)*; X1 = CC1CCN=C(N*)S1", "data": [{"smiles": "CC(C)C[C@@H](/C=C/[C@H](Cc1ccccc1)C(=O)N1CCC[C@H]1C(=O)N[C@H](C(=O)N[C@@H](CCCNC(=O)OCc1ccccc1)C(=O)NC1CC(C)(C)N([O])C(C)(C)C1)C(C)C)NC(=O)OC(C)(C)C", "note": "[Compound 5a]", "values": [{"measurement": "intracellular superoxide generation", "setting": "mouse embryonic cells [1]", "result": "completely inhibited"}, {"measurement": "DNA fragmentation", "setting": "mouse embryonic cells [2]", "result": "prevented DNA fragmentation"}, {"measurement": "caspase-3 activation", "setting": "mouse embryonic cells [2]", "result": "prevented caspase-3 activation"}, {"measurement": "number of annexin V-positive cells (PS externalization)", "setting": "mouse embryonic cells [2]", "result": "reduced the number of annexin V-positive cells"}, {"measurement": "effect at concentrations in excess of 10 μM", "setting": "mouse embryonic cells [2]", "result": "either less protective or exhibited cytotoxicity"}, {"measurement": "integration into cells and mitochondria (EPR signals of nitroxide radicals)", "setting": "mouse embryonic cells [3]", "result": "triplet signals of nitroxide radicals were detected"}]}, {"smiles": "CC1(C)CC(N)CC(C)(C)N1[O]", "note": "[4-amino-TEMPO, reference compound]", "values": [{"measurement": "intracellular superoxide generation", "setting": "mouse embryonic cells [1]", "result": "no effect"}, {"measurement": "protection against ActD-induced apoptosis", "setting": "mouse embryonic cells [2]; low concentrations", "result": "afforded no protection"}, {"measurement": "integration into cells and mitochondria (EPR signals of nitroxide radicals)", "setting": "mouse embryonic cells [3]", "result": "did not effectively permeate cells or the mitochondria"}, {"measurement": "permeation of the mitochondrial membrane (mass spectrometry)", "setting": "[4]", "result": "only permeate the mitochondrial membrane with the assistance of the attached GS-derived targeting sequence"}, {"measurement": "NO induced peroxynitrite formation", "setting": "[5]", "result": "comparable amount of peroxynitrite"}]}, {"smiles": "CC(=O)N1CCN(c2ccc(OCC3COC(Cn4ccnc4)(c4ccc(Cl)cc4Cl)O3)cc2)CC1", "note": "(stereo not drawn) [ketaconazole]", "values": [{"measurement": "log Ko/w", "setting": "[6]", "result": 4.34}]}, {"smiles": "CC1CCN=C(N)S1", "note": "(stereo not drawn) [unconjugated AMT, 2-amino-6-methyl-thiazine, reference compound]", "values": [{"measurement": "permeation of the mitochondrial membrane (mass spectrometry)", "setting": "[4]", "result": "do not enter the mitochondria membrane in substantial quantities"}, {"measurement": "NO induced peroxynitrite formation", "setting": "[5]", "result": "comparable amount of peroxynitrite"}]}, {"smiles": "Clc1ccccc1C(c1ccccc1)(c1ccccc1)n1ccnc1", "note": "[clotrimazole]", "values": [{"measurement": "log Ko/w", "setting": "[6]", "result": 6.27}]}, {"smiles": "COc1ccc2c(c1)c(CC(=O)O)c(C)n2C(=O)c1ccc(Cl)cc1", "note": "[Indomethecin]", "values": [{"measurement": "log Ko/w", "setting": "[6]", "result": 4.23}]}, {"smiles": "CC(C)C[C@@H](/C=C/[C@H](Cc1ccccc1)C(=O)N1CCC[C@H]1C(=O)N[C@H](C(=O)N[C@@H](CCCNC(=O)OCc1ccccc1)C(=O)NC1=NCCC(C)S1)C(C)C)NC(=O)OC(C)(C)C", "note": "(stereo partly drawn) [XJB-5-133, Boc-Leu-ψ[(E)-CH═CH]-^DPhe-Pro-Val-Orn(Cbz)-AMT]", "values": [{"measurement": "Fmole/10 μM mitochondrial protein", "setting": "[4]", "result": "89.8 Fmole/10 μM mitochondrial protein"}]}, {"smiles": "CC(C)C[C@@H](/C=C/[C@H](Cc1ccccc1)C(=O)NC1=NCCC(C)S1)NC(=O)OC(C)(C)C", "note": "(stereo partly drawn) [XJB-5-234, Boc-Leu-ψ[(E)-CH═CH]-^DPhe-AMT]", "values": [{"measurement": "Fmole/10 μM mitochondrial protein", "setting": "[4]", "result": "1.45 Fmole/10 μM mitochondrial protein"}]}, {"smiles": "C/C(=C\\[C@H](Cc1ccccc1)C(=O)N1CCC[C@H]1C(=O)N[C@H](C(=O)N[C@@H](CCCNC(=O)OCc1ccccc1)C(=O)NC1=NCCC(C)S1)C(C)C)[C@H](CC(C)C)NC(=O)OC(C)(C)C", "note": "(stereo partly drawn) [XJB-5-241, Boc-Leu-ψ[(E)-C(CH3)═CH]^DPhe-Pro-Val-Orn(Cbz)-AMT]", "values": [{"measurement": "Fmole/10 μM mitochondrial protein", "setting": "[4]", "result": "103.3 Fmole/10 μM mitochondrial protein"}]}, {"smiles": "CC(C)C[C@H](NC(=O)OC(C)(C)C)C(=O)N[C@H](Cc1ccccc1)C(=O)N1CCC[C@H]1C(=O)N[C@H](C(=O)N[C@@H](CCCNC(=O)OCc1ccccc1)C(=O)NC1=NCCC(C)S1)C(C)C", "note": "(stereo partly drawn) [XJB-5-127, Boc-Leu-^DPhe-Pro-Val-Orn(Cbz)-AMT] (Boc-L[dF]PV[Orn](Cbz)-X1)", "values": [{"measurement": "Fmole/10 μM mitochondrial protein", "setting": "[4]", "result": "50.8 Fmole/10 μM mitochondrial protein"}]}, {"smiles": "CC(C)C[C@H](NC(=O)OC(C)(C)C)C(=O)N[C@H](Cc1ccccc1)C(=O)N1CCC[C@H]1C(=O)N[C@H](C(=O)N[C@@H](CCCNC(=O)OCc1ccccc1)C(=O)NC1CC(C)(C)N([O])C(C)(C)C1)C(C)C", "note": "[Compound 5b] (Boc-L[dF]PV[Orn](Cbz)-{NH(TEMPO-4-yl)})", "values": [{"measurement": "intracellular superoxide generation", "setting": "mouse embryonic cells [1]", "result": "completely inhibited"}, {"measurement": "DNA fragmentation", "setting": "mouse embryonic cells [2]", "result": "prevented DNA fragmentation"}, {"measurement": "caspase-3 activation", "setting": "mouse embryonic cells [2]", "result": "prevented caspase-3 activation"}, {"measurement": "number of annexin V-positive cells (PS externalization)", "setting": "mouse embryonic cells [2]", "result": "reduced the number of annexin V-positive cells"}, {"measurement": "effect at concentrations in excess of 10 μM", "setting": "mouse embryonic cells [2]", "result": "either less protective or exhibited cytotoxicity"}]}, {"smiles": "CC1(C)CC(O)CC(C)(C)N1[O]", "note": "[TEMPOL, 4-hydroxy-2,2,6,6-tetramethylpiperidine-N-oxyl]", "values": [{"measurement": "n (shoulder on the survival curve)", "setting": "[7]", "result": 5.82}, {"measurement": "Do", "setting": "[7]; vs 0.797 Gy for 32D cl 3 cells alone", "result": 1.209, "unit": "Gy"}]}]}
